Earlier results as cited in patent US8664187B2, “Methods of treatment of endobronchial infections” (Novartis AG, priority 2004, dated 2014).
Like-named read-outs stand apart in the source and are kept apart here.

Assays:
P. aeruginosa isolates = conditions: CF patients, 1993
P. aeruginosa [1] = conditions: 300 mg inhaled twice daily, P<0.001 vs placebo
P. aeruginosa [2] = conditions: 600 mg tid aerosolized; 71 CF patients

NC[C@H]1O[C@H](O[C@H]2[C@H](O)[C@@H](O[C@H]3O[C@H](CO)[C@@H](O)[C@H](N)[C@H]3O)[C@H](N)C[C@@H]2N)[C@H](N)C[C@@H]1O [tobramycin]
concentrations effective in inhibiting the growth of many Gram-negative bacteria (Gram-negative bacteria): < 4 µg/mL
MICs of 90% of isolates (P. aeruginosa isolates): ≤ 16 µg/mL
MICs of 98% of all isolates (P. aeruginosa isolates): ≤ 128 µg/mL
average decrease in P. aeruginosa density (P. aeruginosa [1]; 28 days on/28 days off, Week 0 to Week 20): 0.8 log10
average decrease in P. aeruginosa density (P. aeruginosa [1]; Week 0 to Week 4): 1.9 log10
spirometry (P. aeruginosa [2]): improved spirometry
sputum density of P. aeruginosa (P. aeruginosa [2]): significant reduction in sputum density
